Read-outs that look alike come from different tables or passages of the source.
Legend:
Format in all cases: in vivo
[1] = test system: Abutilon theophrasti (ABUTH); assay: Pre-emergence herbicidal action against ABUTH; conditions: Dosage column 320 g/ha (title prints 3200 g/ha); scored visually after about 3 weeks; 100% = plants have died
How it was run: (§1)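 Pre-emergence soil-surface spray, WP/EC formulation, 0.5% additive, 600 l/ha water, rates of 320 g/ha or lower. Greenhouse, ~3 wk. Visual score, % of untreated control (100% = plants dead, 0% = like control).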

[2] = test system: Alopecurus myosuroides (ALOMY); assay: Pre-emergence herbicidal action against ALOMY; conditions: 320 g/ha; scored visually after about 3 weeks; 100% = plants have died
How it was run: as §1

[3] = test system: Amaranthus retroflexus (AMARE); assay: Pre-emergence herbicidal action against AMARE; conditions: visual scoring after about 3 weeks vs untreated controls
How it was run: as §1

Avena fatua (AVEFA) = assay: Pre-emergence herbicidal action against AVEFA; conditions: 320 g/ha, visual scoring after about 3 weeks vs untreated controls
How it was run: as §1

[4] = test system: Echinochloa crus-galli (ECHCG); assay: Pre-emergence herbicidal action against ECHCG; conditions: dosage 320 g/ha
How it was run: as §1

Lolium rigidum (LOLRI) [5] = assay: Pre-emergence herbicidal action against LOLRI; conditions: dosage 320 g/ha
How it was run: as §1

[6] = test system: Matricaria inodora (MATIN); assay: Pre-emergence herbicidal action against MATIN; conditions: dosage 320 g/ha
How it was run: as §1

[7] = test system: Polygonum convolvulus (POLCO); assay: Pre-emergence herbicidal action against POLCO
How it was run: as §1

Setaria viridis (SETVI) [8] = assay: Pre-emergence herbicidal action against SETVI
How it was run: as §1

[9] = test system: Verconica persica (VERPE); assay: Pre-emergence herbicidal action against VERPE; conditions: dosage 320 g/ha
How it was run: as §1

Viola tricolor (VIOTR) = assay: Pre-emergence herbicidal action against VIOTR
How it was run: as §1

Oryza sativa (ORYSA) [10] = conditions: pre-emergence, 80 g/ha, crop plant compatibility, in comparison to untreated controls
How it was run: (§2)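 Crop injury rated visually in percent against untreated plants roughly 3 weeks after treatment (0% no effect, 100% plants dead). Compounds, as WP or EC with 0.5% additive in 600 l/ha water, were applied to the covering soil right after sowing; greenhouse growth. Suffixes a, b, c denote different dosages.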

Zea mays (ZEAMX) [11] = conditions: pre-emergence, 80 g/ha, crop plant compatibility, in comparison to untreated controls
How it was run: as §2

[12] = test system: Alopecurus myosuroides (ALOMY); assay: Post-emergence herbicidal action against ALOMY; conditions: 320 g/ha, visual rating about 3 weeks after treatment vs untreated controls (100% = plants have died, 0% = like control plants)
How it was run: (§3)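 Doses of 320 g/ha or lower, suffixes a, b and c marking different dosages, were applied post-emergence at the one-leaf stage in 600 l/ha water with 0.5% additive. Damage was assessed visually after about 3 weeks in the greenhouse.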

[13] = test system: Amaranthus retroflexus (AMARE); assay: Post-emergence herbicidal action against AMARE
How it was run: as §3

[14] = test system: Echinochloa crus-galli (ECHCG); assay: Post-emergence herbicidal action against ECHCG; conditions: dosage 320 g/ha
How it was run: as §3

[15] = test system: Polygonum convolvulus (POLCO); assay: Post-emergence herbicidal action against POLCO; conditions: dosage 320 g/ha
How it was run: as §3

Oryza sativa (ORYSA) [16] = conditions: crop plant compatibility, effect in comparison to untreated controls
How it was run: (§4)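 Test crops were treated 2 to 3 weeks after sowing, once they reached one leaf, by spraying compound in water with 0.5% additive at 600 l/ha. Visual scoring compared them with untreated controls roughly 3 weeks on, and appendices a, b and c denote different doses.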

[17] = test system: Triticum aestivum (TRZAS); conditions: crop plant compatibility, effect vs untreated controls
How it was run: as §4

[18] = test system: Pharbitis purpurea (PHBPU); assay: Pre-emergence herbicidal action against PHBPU; conditions: dosage 320 g/ha
How it was run: as §1

[19] = test system: Triticum aestivum (TRZAS); conditions: pre-emergence, crop plant compatibility, in comparison to untreated controls
How it was run: as §2

Lolium rigidum (LOLRI) [20] = assay: Post-emergence herbicidal action against LOLRI; conditions: dosage 320 g/ha
How it was run: as §3

[21] = test system: Matricaria inodora (MATIN); assay: Post-emergence herbicidal action against MATIN; conditions: dosage 320 g/ha
How it was run: as §3

[22] = test system: Pharbitis purpurea (PHBPU); assay: Post-emergence herbicidal action against PHBPU
How it was run: as §3

Setaria viridis (SETVI) [23] = assay: Post-emergence herbicidal action against SETVI; conditions: dosage 320 g/ha
How it was run: as §3

[24] = test system: Verconica persica (VERPE); assay: Post-emergence herbicidal action against VERPE
How it was run: as §3

Zea mays (ZEAMX) [25] = conditions: crop plant compatibility, 80 g/ha, effect vs untreated controls
How it was run: as §4

[26] = 320 g/ha, visual rating about 3 weeks after treatment

Row | Post-emergence action against ORYSA in % (Oryza sativa (ORYSA) [16]; 80 g/ha) [%] | Post-emergence action against TRZAS in % ([17]; 80 g/ha) [%] | Pre-emergence action against TRZAS in % ([19]; 80 g/ha) [%] | Post-emergence action against TRZAS in % ([17]; 320 g/ha) [%] | SMILES | Pre-emergence action against ALOMY [2] [%] | Pre-emergence action against AMARE in % ([3]; 320 g/ha) [%] | Pre-emergence action against ECHCG in % [4] [%] | Pre-emergence action against LOLRI in % (Lolium rigidum (LOLRI) [5]) [%] | Pre-emergence action against MATIN in % [6] [%] | Pre-emergence action against POLCO in % ([7]; dosage 320 g/ha) [%] | Pre-emergence action against SETVI in % (Setaria viridis (SETVI) [8]; dosage 320 g/ha) [%] | Post-emergence action against AMARE in % [13, 26] [%] | Post-emergence action against ECHCG in % [14] [%] | Pre-emergence action against PHBPU in % [18] [%] | Post-emergence action against PHBPU in % ([22]; dosage 320 g/ha) [%] | Post-emergence action against VERPE in % ([24]; 320 g/ha, VERPE) [%] | other results
1 | 0 | 0 |  |  | O=C(O)C1CCCN1C(=O)COc1nn(-c2ccccn2)c(-c2ccc(F)nc2)c1Br (stereo not drawn) [Example I-111] | 90 | 100 | 100 | 100 | 80 | 100 | 100 | 90 | 90 |  |  |  | Pre-emergence action against ABUTH [1]: 80%; Pre-emergence action against AMARE in % ([3]; 80 g/ha): 90%; Pre-emergence action against AVEFA in % (Avena fatua (AVEFA)): 80%; Pre-emergence action against POLCO in % ([7]; dosage 80 g/ha): 80%; Pre-emergence action against SETVI in % (Setaria viridis (SETVI) [8]; dosage 80 g/ha): 90%; Pre-emergence action against VERPE in % [9]: 90%; Pre-emergence action against VIOTR in % (Viola tricolor (VIOTR); 320 g/ha, Viola tricolor): 100%; Pre-emergence action against VIOTR in % (Viola tricolor (VIOTR); dosage 80 g/ha): 80%; Pre-emergence action against ORYSA in % (Oryza sativa (ORYSA) [10]): 0%; Pre-emergence action against ZEAMX in % (Zea mays (ZEAMX) [11]): 0%; Post-emergence action against ALOMY in % [12]: 100%; Post-emergence action against AMARE in % ([13]; 80 g/ha, visual rating about 3 weeks after treatment vs untreated controls (100% = plants have died, 0% = like control plants)): 80%; Post-emergence action against POLCO in % [15]: 80%; Post-emergence action against ORYSA in % (Oryza sativa (ORYSA) [16]; 320 g/ha): 0%
2 | 10 | 0 | 0 | 20 | COC(=O)CCOC(=O)COc1nn(-c2cccc(C)n2)c(-c2ccc(F)nc2)c1Cl [Example I-276] | 80 | 90 | 90 | 100 | 80 | 80 | 90 | 90 | 80 | 80 | 90 | 90 | Pre-emergence action against TRZAS in % ([19]; 320 g/ha): 0%; Post-emergence action against LOLRI in % (Lolium rigidum (LOLRI) [20]): 80%; Post-emergence action against MATIN in % [21]: 80%; Post-emergence action against PHBPU in % ([22]; dosage 80 g/ha): 80%; Post-emergence action against SETVI in % (Setaria viridis (SETVI) [23]): 90%; Post-emergence action against VERPE in % ([24]; dosage 80 g/ha): 80%
3 | 10 | 0 | 0 | 20 | COCCOC(=O)COc1nn(-c2cccc(C)n2)c(-c2ccc(F)nc2)c1Br [Example I-277] |  | 80 | 80 | 90 |  |  | 80 |  | 80 | 80 | 80 | 80 | Post-emergence action against ZEAMX in % (Zea mays (ZEAMX) [25]): 10%
